Drawing on ChEMBL document CHEMBL1125969, “Design, synthesis and cytotoxic evaluation of keto-C-glycoside fatty acid conjugates” (Bioorg Med Chem Lett, 1991), this text covers IC50 for 19 molecules.

The first experiment concerns LFCl2A. Description: In vitro cytotoxicity against LFCl2A (rat hepatocarcinoma) cells.
Conditions: not given
Format: functional, cell-based.
The molecule `O=c1[nH]cc(F)c(=O)[nH]1` [FLUOROURACIL] gave an IC50 of 28500 nM.

The experiment is the same for the next values; noted with them: read-out: IC50.
In the case of `CCCC(=O)OC[C@H]1O[C@H](C2CCCC=C2C)C=CC1=O` (some centres undefined), the IC50 was 350 nM.

In the case of `CC/C=C\C/C=C\C/C=C\C/C=C\C/C=C\C/C=C\CCC(=O)OC[C@H]1O[C@H](CC2=CCCCC2)C=CC1=O`, the IC50 worked out at 50 nM. Same read-out and setting: as for `CC1=CCCCC1[C@H]1O[C@H](CO)C=CC1=O` (some centres undefined), the figure is 3500 nM; as for `CCCCCCCC/C=C\CCCCCCCC(=O)OC[C@H]1O[C@H](CC2=CCCCC2)C=CC1=O`, 80 nM; as for `O=C1C=C[C@@H](CO)O[C@@H]1CC1=CCCCC1`, 9500 nM. Same read-out and setting: as for `CCCCC/C=C\C/C=C\C/C=C\C/C=C\CCCC(=O)OC[C@@H]1C=CC(=O)[C@@H](C2CCCC=C2C)O1` (some centres undefined), the figure is 5000 nM. For the molecule `CCCCC/C=C\C/C=C\C/C=C\C/C=C\CCCC(=O)OC[C@H]1O[C@H](CC2=CCCCC2)C=CC1=O`, the IC50 was 7000 nM. On to `CCCCCCCC/C=C\CCCCCCCC(=O)OC[C@H]1O[C@H](C2CCCC=C2C)C=CC1=O` (some centres undefined), for which the IC50 was determined as 50 nM. Consider `CC(=O)OC[C@H]1O[C@H](CC2=CCCCC2)C=CC1=O`, for which the IC50 came out at 150 nM. The same measure, in the same setting: as for `CC/C=C\C/C=C\C/C=C\C/C=C\C/C=C\C/C=C\CCC(=O)OC[C@H]1O[C@H](C2CCCC=C2C)C=CC1=O` (some centres undefined), the figure is 20 nM.

Take `O=C1C=C[C@@H](CC2=CCCCC2)O[C@@H]1CO`: the IC50 was 3000 nM.

On to `CCCCC/C=C\C/C=C\C/C=C\C/C=C\CCCC(=O)OC[C@H]1O[C@H](C2CCCC=C2C)C=CC1=O` (some centres undefined), for which the IC50 amounted to 1 nM.

On to `CC/C=C\C/C=C\C/C=C\C/C=C\C/C=C\C/C=C\CCC(=O)OC[C@@H]1C=CC(=O)[C@@H](CC2=CCCCC2)O1`, for which the IC50 came to 30000 nM. Still for that read-out and setting: as for `CCCCCCCC/C=C\CCCCCCCC(=O)OC[C@@H]1C=CC(=O)[C@@H](C2CCCC=C2C)O1` (some centres undefined), the figure is 35000 nM; as for `CCCC(=O)OC[C@H]1O[C@H](CC2=CCCCC2)C=CC1=O`, 90 nM. On the same count and under the same terms, as for `CCCCC/C=C\C/C=C\C/C=C\C/C=C\CCCC(=O)OC[C@@H]1C=CC(=O)[C@@H](CC2=CCCCC2)O1`, the figure is 35000 nM; as for `CC(=O)OC[C@H]1O[C@H](C2CCCC=C2C)C=CC1=O` (some centres undefined), 700 nM.

Turning to `CC/C=C\C/C=C\C/C=C\C/C=C\C/C=C\C/C=C\CCC(=O)OC[C@@H]1C=CC(=O)[C@@H](C2CCCC=C2C)O1` (some centres undefined), the IC50 is 65000 nM.
